Where a name gives a salt, the structure may show the parent alone. Where a SMILES comes first, the peptide text is derived from it.
Tests used:
IGF-II mRNA = assay: IGF-II expression assay, qPCR detection, in primary spinal cord cultures; type: cell-based, mice; conditions: for induction of IGF-II expression (in words): antihypertensive agents, FIGS. 5 and 6
Procedure: Quantitative PCR utilizing SYBR green I (Molecular Probes, Eugene, Oreg.) or specific Taqman probes was used to confirm differential gene expression. RNA extracted from 100-200 LCMed motor neurons were reverse transcribed using Superscript III (Invitrogen). 2 μl of diluted cDNA was amplified (DNA Engine Opticon real-time PCR machine, Bio-Rad), in […] reactions containing 900 nM primer and 250 nM probe in Taqman Universal Master Mix (Applied Biosystems). Reactions were run in duplicate and each gene analyzed in at least three different animals. Reaction parameters were as follows: 50° C. for 2 min, 95° C. for 10 min, and 40 cycles of 95° C. for 15 s and 60° C. for 1 min. Controls lacking template and/or Superscript were included. The absolute copy number for each gene was quantified using a standard curve from human GAPDH plasmid and amplified products were normalized against rat GAPDH expression. Primers and probes (Integrated DNA technologies) were as follows: rat GAPDH: Forward primer: […]
Two libraries of FDA-approved drugs (NINDS and Harvard LDDN) were screened for their ability to up-regulate IGF-II expression. Candidate compounds were screened in an IGF-II expression assay using a qPCR detection methodology in primary spinal cord cultures or using a luciferase reporter assay. In the initial screening, therapeutic candidates were identified as those that increased IGF-II expression by at least 2-fold. […]

IGF-II protein = IGF-II protein expression in primary spinal cord cultures, quantitated by ELISA; type: cell-based, mice
From the text: Further results of the library screening identified the following therapeutic agents as having a significant inducing effect on IGF-II expression in primary spinal cord cultures and are useful for treating motor neuron disease. Protein expression was quantitated by ELISA.

Row | Molecule | Fold Increase in IGF-II mRNA Expression (IGF-II mRNA) | other results
1 | CNCC[C@@H](Oc1ccccc1C)c1ccccc1 [Atomoxetine HCl] | 4.8 fold | –
2 | COc1cc2c(cc1OC)C(=O)C(CC1CCN(Cc3ccccc3)CC1)C2 (stereo not shown) [donepezil HCl] | – | induction of IGF-II expression (in words) (IGF-II mRNA): most active
3 | COC(=O)[C@H](Cc1ccccc1)NC(=O)[C@@H](N)CC(=O)O [Aspartame] (H-Asp-Phe-OMe) | 5.5 ± 0.7 fold | Fold Increase in IGF-II Protein Expression (IGF-II protein): 1.2 fold; IGF-II Protein Expression (pg/ml in media) (IGF-II protein): (175 ± 1.7) pg/ml
4 | CCCc1nc(C(C)(C)O)c(C(=O)OCc2oc(=O)oc2C)n1Cc1ccc(-c2ccccc2-c2nnn[nH]2)cc1 [Olmesartan medoxomil] | 5.2 fold | induction of IGF-II expression (in words) (IGF-II mRNA): most active
5 | COc1ccc(Cl)cc1C(=O)NCCc1ccc(S(=O)(=O)NC(=O)NC2CCCCC2)cc1 [Glyburide] | 4.9 fold | –
6 | Clc1cccc(Cl)c1N=C1NCCN1 [clonidine HCl] | – | induction of IGF-II expression (in words) (IGF-II mRNA): most active
7 | CC(COc1ccccc1)N(CCCl)Cc1ccccc1 (stereo not shown) [phenoxybenzamine HCl] | – | induction of IGF-II expression (in words) (IGF-II mRNA): most active
8 | COCCCC/C(=N\OCCN)c1ccc(C(F)(F)F)cc1 [Fluvoxamine maleate] | 4.8 fold | –
9 | Cc1onc(-c2c(Cl)cccc2Cl)c1C(=O)N[C@@H]1C(=O)N2[C@@H]1SC(C)(C)[C@@H]2C(=O)O [Dicloxacillin sodium] | 3.2 fold | –
10 | Cc1cc2nc3c(=O)[nH]c(=O)nc-3n(C[C@H](O)[C@H](O)[C@H](O)CO)c2cc1C [Riboflavin] | 4.1 ± 1.9 fold | Fold Increase in IGF-II Protein Expression (IGF-II protein): 1.5 fold; IGF-II Protein Expression (pg/ml in media) (IGF-II protein): (205 ± 42) pg/ml
11 | O=C(O)COCCN1CCN(C(c2ccccc2)c2ccc(Cl)cc2)CC1 (stereo not shown) [Cetirizine HCl] | 5.8 fold | –
12 | C[N+](C)(C)C[C@H](O)CC(=O)[O-] [Levocarnitine] | 5.7 ± 1.1 fold | Fold Increase in IGF-II Protein Expression (IGF-II protein): 1.7 fold; IGF-II Protein Expression (pg/ml in media) (IGF-II protein): (258 ± 7) pg/ml
13 | Cc1cc2c(s1)Nc1ccccc1N=C2N1CCN(C)CC1 [Olanzapine] | 4.0 fold | –
14 | Cc1ncc(C[n+]2csc(CCO[P@](=O)(O)OP(=O)(O)O)c2C)c(N)n1 [Thiamine pyrophosphate] | 4.1 ± 2.1 fold | Fold Increase in IGF-II Protein Expression (IGF-II protein): 0.9 fold; IGF-II Protein Expression (pg/ml in media) (IGF-II protein): (118 ± 42) pg/ml
15 | CC(C)NCC(O)COc1ccc(CC(N)=O)cc1 (stereo not shown) [atenolol] | – | induction of IGF-II expression (in words) (IGF-II mRNA): most active
16 | COc1ccccc1OCC(O)CO (stereo not shown) [Guaifenesin] | 2.9 fold | –
17 | NC(=O)C[S+]([O-])C(c1ccccc1)c1ccccc1 (stereo not shown) [Modafinil] | 4.4 ± 4.0 fold | Fold Increase in IGF-II Protein Expression (IGF-II protein): 1.4 fold; IGF-II Protein Expression (pg/ml in media) (IGF-II protein): (213 ± 22) pg/ml
18 | CS(=O)(=O)c1ccc([C@@H](O)[C@@H](CO)NC(=O)C(Cl)Cl)cc1 [Thiamphenicol] | 3.5 fold | –
19 | N[C@@H](Cc1ccc(O)c(O)c1)C(=O)O [Levodopa] | 3.5 fold | –
20 | CC(C)[C@H](N)C(=O)OCCOCn1cnc2c(=O)[nH]c(N)nc21 [Valacyclovir HCl] | 4.2 ± 1.8 fold | Fold Increase in IGF-II Protein Expression (IGF-II protein): 1.5 fold; IGF-II Protein Expression (pg/ml in media) (IGF-II protein): (232 ± 4) pg/ml
21 | CN(C)CCCN1c2ccccc2Sc2ccc(Cl)cc21 [Chlorpromazine] | 3.4 fold | –
22 | COc1ccc([C@@H]2Sc3ccccc3N(CCN(C)C)C(=O)[C@@H]2OC(C)=O)cc1 [Diltiazem HCl] | 4.3 fold | induction of IGF-II expression (in words) (IGF-II mRNA): most active
23 | CN1CCCC1c1cccnc1.O=C(O)C(O)C(O)C(=O)O.O=C(O)C(O)C(O)C(=O)O (stereo not shown) [Nicotine ditartrate] | 4.8 ± 0.3 fold | Fold Increase in IGF-II Protein Expression (IGF-II protein): 1.5 fold; IGF-II Protein Expression (pg/ml in media) (IGF-II protein): (205 ± 26) pg/ml
24 | Cc1cnc(NC(=O)C2=C(O)c3ccccc3S(=O)(=O)N2C)s1 [Meloxicam sodium] | 4.1 fold | –
25 | CNCCC(Oc1ccc(C(F)(F)F)cc1)c1ccccc1 (stereo not shown) [Fluoxetine] | 4.3 ± 2.3 fold | –

Row | Molecule | Fold Increase in IGF-II mRNA Expression (IGF-II mRNA) | other results
26 | NC(=O)c1cccnc1 [Niacinamide] | 5.0 ± 3.6 fold | Fold Increase in IGF-II Protein Expression (IGF-II protein): 1.1 fold; IGF-II Protein Expression (pg/ml in media) (IGF-II protein): (151 ± 45) pg/ml
27 | Nc1nc(/C(=C/CC(=O)O)C(=O)N[C@@H]2C(=O)N3C(C(=O)O)=CCS[C@H]23)cs1 [Ceftibuten] | 3.9 ± 2.7 fold | –
28 | O=C(O)c1cc(-c2ccc(F)cc2F)ccc1O [diflunisal] | – | IGF-II inducing activity (in words) (IGF-II mRNA; NSAID series, FIGS. 3 and 4): strong IGF-II inducing activity
29 | NNc1nncc2ccccc12 [Hydralazine HCl] | 6.3 fold | induction of IGF-II expression (in words) (IGF-II mRNA): most active
30 | CCCN(CCC)CCc1cccc2c1CC(=O)N2 [Ropinirole] | 4.5 ± 3.0 fold | –
31 | CN1CCC[C@@H]1Cc1c[nH]c2ccc(CCS(=O)(=O)c3ccccc3)cc12 [Eletriptan HBr] | 4.3 fold | –
32 | CC(C)(C)NC[C@H](O)COc1nsnc1N1CCOCC1 [timolol maleate] | – | induction of IGF-II expression (in words) (IGF-II mRNA): most active
33 | COc1ccc2[nH]c([S+]([O-])Cc3ncc(C)c(OC)c3C)nc2c1 (stereo not shown) [Omeprazole] | 5.9 fold | –
34 | terbutaline hemisulfate | – | induction of IGF-II expression (in words) (IGF-II mRNA): most active
35 | CCOC(=O)[C@@](C)(N)Cc1ccc(O)c(O)c1 [Methyldopate HCl] | 4.3 fold | induction of IGF-II expression (in words) (IGF-II mRNA): most active
36 | COc1ccccc1OCCNCC(O)COc1cccc2[nH]c3ccccc3c12 (stereo not shown) [carvedilol] | – | induction of IGF-II expression (in words) (IGF-II mRNA): most active
37 | CC(=O)OCC(=O)[C@@]1(O)[C@H](C)C[C@H]2[C@@H]3CCC4=CC(=O)C=C[C@]4(C)[C@@]3(F)[C@@H](O)C[C@@]21C [Dexamethasone acetate] | 3.8 fold | –
38 | O=C(O)Cc1ccccc1Nc1c(Cl)cccc1Cl [Diclofenac] | 4.0 ± 1.1 fold | Fold Increase in IGF-II Protein Expression (IGF-II protein): 1.1 fold; IGF-II Protein Expression (pg/ml in media) (IGF-II protein): (112 ± 29) pg/ml; induction of IGF-II expression (fold induction) (IGF-II mRNA; NSAID series, FIGS. 3 and 4): 3.4±1.3 fold
39 | COC(=O)C1=C(C)NC(C)=C(C(=O)OC)C1c1ccccc1[N+](=O)[O-] [Nifedipine] | 6.6 ± 6.2 fold | –
40 | COc1ccc(-c2cc(C(F)F)nn2-c2ccc(S(N)(=O)=O)cc2)cc1F [deracoxib] | – | IGF-II inducing activity (in words) (IGF-II mRNA; NSAID series, FIGS. 3 and 4): strong IGF-II inducing activity
41 | Cc1onc(-c2ccccc2)c1-c1ccc(S(N)(=O)=O)cc1 [valdecoxib] | – | IGF-II inducing activity (in words) (IGF-II mRNA; NSAID series, FIGS. 3 and 4): strong IGF-II inducing activity
42 | CCCCNc1cc(C(=O)O)cc(S(N)(=O)=O)c1Oc1ccccc1 [bumetanide] | – | induction of IGF-II expression (in words) (IGF-II mRNA): most active
43 | Nc1c2c(nc3ccccc13)CCCC2 [Tacrine HCl] | 3.7 fold | –
44 | CC(C(=O)O)c1ccc2c(c1)[nH]c1ccc(Cl)cc12 (stereo not shown) [Carboprofen] | 2.4 fold | IGF-II inducing activity (in words) (IGF-II mRNA; NSAID series, FIGS. 3 and 4): strong IGF-II inducing activity
45 | Cc1ccc(-c2nc3ccc(C)cn3c2CC(=O)N(C)C)cc1 [Zolpidem] | 6.1 fold | –
46 | COCCCOc1cc(C[C@@H](C[C@H](N)[C@@H](O)C[C@H](C(=O)NCC(C)(C)C(N)=O)C(C)C)C(C)C)ccc1OC [aliskiren hemifumarate] | – | induction of IGF-II expression (in words) (IGF-II mRNA): most active
47 | Clc1ccc2c(c1)C(N1CCNCC1)=Nc1ccccc1O2 [Amoxapine] | 4.1 ± 2.3 fold | –
48 | CN(C)CCCC1(c2ccc(F)cc2)OCc2cc(C#N)ccc21 (stereo not shown) [Citalopram] | 3.4 fold | –
49 | CN1CCCC(n2nc(Cc3ccc(Cl)cc3)c3ccccc3c2=O)CC1 (stereo not shown) [Azelastine HCl] | 3.2 fold | –

From patent US20130274235A1, “TREATMENT OF MOTOR NEURON DISEASE” (THE GENERAL HOSPITAL CORPORATION, priority 2010, published 2013)
